Laboratory results published in US9139615B2, “High-affinity, dimeric inhibitors of PSD-95 as efficient neuroprotectants against ischemic brain damage and for treatment of pain” (University of Copenhagen, priority 2011, dated 2015).
Where no end group is shown, it is not given here.

Key:
[1] = Human blood plasma stability assay; assay type: in vitro ADME; details: human, plasma; 0.25 mM, 37° C., in vitro; read-out: half-life (T1/2) in human blood plasma
Protocol: Ligands (dimeric PSD-95 inhibitors) for the PDZ domain of PSD-95 were dissolved in human blood plasma (270 μL; 3H Biomedical, Sweden, cat no 1300-1-P50) to a concentration of 0.25 mM (30 μL, of 2.5 mM) and incubated at 37° C. Aliquots (30 μL) were removed at various time intervals (e.g. 0, 5, 10, 20, 40, 80, 160, 320, 960, 1280, 2550, 4560 and 7240 min) and quenched with 60 μL, trichloroacetic acid (aq., 5%). The aliquots were vortexed, and incubated 15 min, at 4° C. prior to centrifugation at 18,000 g for 2 min. The supernatants were analyzed by analytical RP-HPLC (UV218) to quantify compound relative to time zero, and also evaluated qualitatively by ESI-LC/MS in order to identify the compound (m/z) in the sample. Procaine (positive control) and procainamide (negative control) were investigated at 50 μM to validate the procedure. Ligand recoveries following the precipitation procedure were between 85-95%.

[2] = Physiological status of pMCAO mice (blood values, body weight, temperature, survival); assay type: in vivo; details: mouse, in vivo
Protocol: The physiological status of the mice was carefully monitored prior to and during pMCAO surgery in order to exclude the observed effects of treatment with dimeric PSD-95 inhibitors being due to secondary conditions (e.g. disease-related) resulting from the experimental procedure.
9.10 Body weight monitoring: The body weight of each mouse was registered during pre-training, before surgery, and at 24 and 48 hours after surgery and no differences were seen between the treatment groups (FIG. 13).
9.11 Temperature monitoring: The rectal temperature of the mouse was continuously measured using a thermocoupled probe connected to a Model Bat 12 unit (Physitemp). The temperature was measured prior to and 30 min after pMCAO in addition to 30 min and 2.5 hours after i.v. injection, i.e. 1 and 3 hours after pMCAO.
9.12 Blood gas analysis: One samples of venous blood was taken for blood gas analysis of PO2/PCO2 electrolytes, glucose, lactate, and hematocrit, 30 min after compound administration (1 hour after pMCAO). A capillary heparin coated tube was inserted along the inner corner of eye and turned until it penetrated the conjunctiva. A sample of blood (150 μl) was collected and stored on ice until gas analysis using the GEM Premier 300 blood gas instrument (Instrumentation Laboratory) Quality controls (QC ContrlIL9) were purchased from IL Sensor Systems. Also, no differences were detected in blood gas parameters (PO2/PCO2, pH, electrolytes, glu/lac), which were similar between the groups and within normal range, when compared to unmanipulated control mice (Table 4).

[3] = Blood-brain barrier permeability of fluorescent analogues; assay type: in vivo, mice; details: mouse, in vivo, iv
Protocol: VI.ii. Blood-brain Barrier Permeability. […] After injection of the compounds, the mice are perfused with paraformaldehyde and the brains are carefully removed, post-fixed in paraformaldehyde, processed into coronal sections, and quantified for fluorescence (Example 8).
The fluorescent ligands were injected intravenously (3 nmol/g) and the location of the ligands was detected by fluorescence microscopy of coronal brain slices (n=8) mice, was evaluated 2 hours after injection. Two sections of the brain, prior to and two after the anterior commissure (n=5), were selected for BBB permeability analysis. The anterior commissure (Bregma: −0.3) was used as a fix point in the brain in order to analyse anatomically identical brain sections. The intensity of the 5-FAM fluorophore was measured semi-quantitatively using a fluorescence microscopy system (Olympus System Microscope model BX-51, Denmark) with a 10× objective (Olympus 10×/0.15 UPlanApo) connected to a high-resolution microscope digital camera (Olympus model DP70), which transferred images to an image-capturing software (Image Pro Plus software). All images were taken using the same microscope settings and with constant camera exposure time. Intensities were quantified using the ImageJ software.
5-FAM-labeled derivative of Tat-NR2B9c is designated MS23. After injection of the compounds, the mice are perfused with paraformaldehyde and the brains are carefully removed, post-fixed in paraformaldehyde, processed into coronal sections, and quantified for fluorescence.
C57BL/6 mice with 6 hour post-surgical survival time were euthanized by cervical dislocation. C57BL/6 mice with 48 hour post-surgical survival were anesthetized with an overdosed of pentobarbital (the pharmacy of the Faculty of Life Sciences, University of Copenhagen, Denmark) in order to collect blood and tissue samples. All brains were carefully removed, frozen in gaseous CO2 and cut into 6 series of 30 μm coronal cryostat sections and stored at −80° C. until further use. C57BL/6J mice used to investigate the blood-brain barrier (BBB) permeability of AB143, AB145, AB148, and MS23 were deeply anesthetized and perfused through the left ventricle, using 10 ml chilled Soerensens phosphate buffer (SB) ([…], 125 mM Na2HPO4, pH 7.4) followed by 20 mL SB containing 4% paraformaldehyde (PFA). The brains were carefully removed and post-fixed in 4% PFA for 1 hour followed by immersion in SB containing 20% sucrose over night. The brains were frozen on gaseous CO2 and processed into 16 μm coronal cryostat sections.

In the case of “YGRKKRRQRRRKLSSIESDV [Tat-NR2B9c, reference compound]”, the half-life at 0.25 mM [1] is reported as 18.3 ± 5 h, the Hct [2] is reported as 40.8 ± 0.6% and the “[Ca2+]” value [2] is reported as 1.32 ± 0.01 mmol/L. The “[K+]” value [2] was 5.1 ± 0.13 mmol/L, the “[Lactate]” value [2] was 0.87 ± 0.07 mmol/L and the “[Na+]” value [2] was 147 ± 0.3 mmol/L. For the same sequence, the pCO2 [2] was 106 ± 2.4 mmHg, the pO2 [2] was 55.2 ± 2.6 mmHg and the “entry into brain, fluorescence microscopy of coronal brain slices” value [3] was “enter the brain”.
